Assay results taken from patent publication EP0536208B1, “1,2-DIHYDRO-3H-DIBENZISOQUINOLINE-1,3-DIONE ANTICANCER AGENTS” (RESEARCH CORPORATION TECHNOLOGIES, INC., priority 1990, dated 1992).
Converted amounts (≈) assume the structure as drawn. Like-named read-outs stand apart in the source and are kept apart here.

Legend:
Colon-38 Adenocarcinoma = assay: Tumor growth delay in mice, Colon-38 model; assay type: in vivo; conditions: 20mg implants in C57B/mice; 15 mg/kg; d3,6; intraperitoneally
Excerpt: Thus, in the lower level resistant cell lines, such as the ten-fold mitomycin C resistant L1210 and the tenfold adriamycin resistant 2780 ovarian cancer, Compound 1 maintained its complete activity as shown in Table II. The anti-tumor activity of compounds of the present invention in in vivo mouse murine models were studied. 3) Survival Studies In Tumor-Bearing Mice: 3.1 P-388 Leukemia Modles: One million P-388 leukemia cells originally obtained from American Type Culture Collection (Rockville, MD) are implanted into the peritoneum of adult DBA-2J male mice (Jackson Laboratories, Bar Harbor, ME). Twenty four hours later, drugs diluted in physiological saline are injected intraperitoneally at a volume of 0.1 mL/10 g body weight. The mice (10/group) are then followed for survival daily and compared to untreated tumor bearing mice. […] The perpendicular widths of the tumors are measured by caliper thrice weekly and converted to an estimated tumor mass according to the formula: ((1 X W)^2)/(2)= grams of tumor. [formula] wherein • W = width of tumor • l = length of tumor Tumor growth delay is calculated as the difference in days for tumors in treated mice to reach an estimated mass 750 mg or 1.5 g compared to that in untreated controls: Days to reach 750 mg (Treated - Control) = Days of Tumor Growth Delay [formula] […]

SW80p105 = assay: Activity against human colon tumor cells (MTT assay, 3 day drug exposure); assay type: cell-based; conditions: cells plated 24 hr. prior to drug addition, read-out: Concentration for 50% inhibition of colony formation for human colon tumors
Method: (§1) For example, the compounds of the present invention were evaluated for cytotoxic activities in cloned human colon carcinomas. The clonogenic assays were conducted in accordance with the procedure described hereinbelow: 1) Colony Forming Assays in Soft Agar: Fresh human or murine tumors are disaggregated into single cell suspensions using mechanical, hypoosmotic and/or enzymatic (trypsin) methods. The single cells (about 5 X 10^4-10^5) are plated in 35 mm plastic petri dishes onto a 1 ml "feeder layer" of 0.3% agar dissolved in growth medium containing 5-10% vol/vol of heat-inactivated fetal bovine serum, molten 0.3% agar and the antibiotics penicillin (100 u/mL) and streptomycin (100 ug/mL). Drug exposures can be performed for one hour or continuously (drugs added to final plating medium). Tumor cell colonies > 60 uM in size are counted by automated image analysis after 10-20 days of incubation in a humidified, 5-10% CO2-gassed environment maintained at 37°C. Inhibition of colony formation is calculated based on comparisons to control (untreated) plates wherein the growth of hundreds of colonies/plate is typical. (Salmon SE, et al., N Engl J Med 298(24):1321-1327, 1978).
(§2) Compounds of the present invention were tested for their in vitro activity in tumor cells sensitive and resistant to standard anti-cancer agents. The tumor cell lines used in this protocol are 8226 human Myeloma^1; 8226/Dox-40^2, L-1210/Murine Leukemia, multidrug resistant L-210/^3, 2780 Human Ovarian Cancer and 2780/AD^4. Each of these resistant cell lines is known as a multidrug resistant or "MDR" cell line. These cell lines produce a 170,00 molecular weight membrane protein termed the P-glycoprotein which acts as an active drug efflux pump. Thus, once a cell produces the P-glycoprotein, it has the capability of pumping out of the cell a large variety of unrelated natural products. […] The protocol for measuring the effectiveness of compounds of the present invention is as follows: 2) In Vitro Tumor Cell Viability Assays Using MTT-Dye: Tumors are processed into a single cell suspension as described above. The cells are plated at a concentration of 3-5 X 10^4/1 mL well into plastic 96-well plates. […] Afterwards the medium containing the drug is removed, the cells are "washed" by centrifugation in fresh medium or phosphate-buffered saline (pH 7.4). A tetrazolium dye is then added (3,4,5-dimethylthiazol-2-yl)-2,5-diphenyl tetrazolium bromide (MTT). This dye forms a colored formazan product upon activation by mitochondrial reductases in viable cells. Typically, the formazan product is solubilized in acid-propanol or DMSO. The intensity of the color is proportional to viable cell numbers and this is quantitated by spectrophotometric absorbance ([…]) on a micro ELISA plate reader. Test results are calibrated in % control absorbance from untreated tumor cells (Mossman T: J Immunol Meth 65:55-63, 1983). Using the above procedure, Compound 1 was tested for its cytotoxic activity with respect to various tumor cell lines.

HT29p30 = assay: as above; assay type: cell-based; conditions: cells plated 24 hr. prior to drug addition, read-out: Concentration for 50% inhibition of colony formation for human colon tumors
Method: as §1, §2

Resistant L1210 = assay: In vitro tumor cell viability assay using MTT dye; assay type: cell-based, Murine; conditions: for IC50: Mus musculus
Method: as §2

## CN(C)CCN1C(=O)c2cccc3cc4ccccc4c(c23)C1=O [Compound 1, 2-[2'-(dimethylamino)ethyl]-1,2-dihydro-3H-dibenz(deh)isoquinoline-1,3-dione]
Colon-38 Adenocarcinoma
  Experimental Activity, Days of Tumor Growth Delay: 6 days TT
SW80p105
  IC50: 150 nM
HT29p30
  IC50: 340 nM
Resistant L1210; 144 h, Resistant L1210, six day MTT assay, continuous drug exposure, read-out: Concentration for 50% inhibition of tumor cells
  IC50: 2.5 ng/mL (≈ 7.85 nM)
Resistant L1210; L1210, 96 h, L-1210/ MDR, P-glycoprotein (+), 10-fold resistance to Mitomycin C, 4-day drug exposure, MTT dye reduction, read-out: Activity (IC50)
  IC50: 3 ng/mL (≈ 9.42 nM)
Resistant L1210; L1210 Leukemia Cells Resistant, continuous exposure, MTT dye assay, read-out: IC50 VALUES
  IC50: 2.5 ng/mL (≈ 7.85 nM)
Resistant L1210; resistant L-1210/ versus L-1210/Murine Leukemia
  Cross Resistance: None
